Laboratory results published in the Kinase Knowledgebase extract (Sharma et al. 2016).

biological target: PIK3CG (human) (UniProt P48736); assay: Inhibition of PIK3CG Kinase Activity
Sequence (P48736 whole entry, looked up): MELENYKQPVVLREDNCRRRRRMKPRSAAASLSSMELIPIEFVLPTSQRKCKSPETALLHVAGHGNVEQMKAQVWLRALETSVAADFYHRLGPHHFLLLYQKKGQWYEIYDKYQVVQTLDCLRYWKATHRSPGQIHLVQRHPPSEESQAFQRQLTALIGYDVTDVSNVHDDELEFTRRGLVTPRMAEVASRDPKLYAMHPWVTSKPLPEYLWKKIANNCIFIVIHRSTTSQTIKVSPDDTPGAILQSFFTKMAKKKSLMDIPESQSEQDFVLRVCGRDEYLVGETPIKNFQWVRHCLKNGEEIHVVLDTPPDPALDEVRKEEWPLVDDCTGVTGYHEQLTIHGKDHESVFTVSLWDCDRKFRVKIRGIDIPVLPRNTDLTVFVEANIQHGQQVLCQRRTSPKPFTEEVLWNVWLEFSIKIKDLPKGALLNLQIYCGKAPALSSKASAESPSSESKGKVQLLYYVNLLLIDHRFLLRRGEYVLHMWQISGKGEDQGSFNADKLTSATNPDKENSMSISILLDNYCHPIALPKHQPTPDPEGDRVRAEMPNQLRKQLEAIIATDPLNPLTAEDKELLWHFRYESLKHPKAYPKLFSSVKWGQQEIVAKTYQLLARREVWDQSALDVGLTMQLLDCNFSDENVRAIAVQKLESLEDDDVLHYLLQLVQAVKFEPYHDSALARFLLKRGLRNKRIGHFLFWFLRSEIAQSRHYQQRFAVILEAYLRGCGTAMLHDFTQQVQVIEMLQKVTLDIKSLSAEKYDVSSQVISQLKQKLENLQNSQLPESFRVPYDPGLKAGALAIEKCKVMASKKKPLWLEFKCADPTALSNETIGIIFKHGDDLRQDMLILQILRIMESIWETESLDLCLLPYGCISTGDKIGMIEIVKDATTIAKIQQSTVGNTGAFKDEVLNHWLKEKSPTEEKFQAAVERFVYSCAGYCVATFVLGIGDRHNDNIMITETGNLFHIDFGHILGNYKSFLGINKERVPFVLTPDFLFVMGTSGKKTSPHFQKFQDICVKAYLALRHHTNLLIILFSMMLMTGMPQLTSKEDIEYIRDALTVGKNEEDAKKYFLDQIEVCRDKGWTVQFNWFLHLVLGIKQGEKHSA

SMILES	IC50
CC(=O)Nc1nc2c(s1)-c1c(c(C3CC3)nn1-c1ccc(C(=O)N(C)[C@H]3CC[C@@H](N(C)CC4CC4)CC3)cc1F)CC2	< 600 nM
CC(=O)Nc1nc2c(s1)-c1c(c(C3CC3)nn1-c1ccc(C(=O)N[C@@H]3CCN(C4CCCC4)C3)c(F)c1)CC2	< 600 nM
CC(=O)Nc1nc2c(s1)-c1c(c(C3CC3)nn1-c1ccc(C(=O)NC[C@@H]3CCCN3C3CCCC3)c(Cl)c1)CC2	< 600 nM
CC(=O)Nc1nc2c(s1)-c1c(c(C3CC3)nn1C1CCC(C(=O)NC3CCN(CC4CCCC4)CC3)CC1)CC2 (stereo not drawn)	< 600 nM
CC(=O)Nc1nc2c(s1)-c1c(c(C3CC3)nn1-c1ccc(C(=O)NC3CCN(C4CCOCC4)CC3)cc1C)CC2	< 600 nM
CC(=O)Nc1nc2c(s1)-c1c(c(C3CC3)nn1-c1ccc(NCC3CCNCC3)cc1Cl)CC2	< 600 nM
CC(=O)Nc1nc2c(s1)-c1c(c(C3CC3)nn1C1CCC(C(=O)NC3CCCCC3)CC1)CC2 (stereo not drawn)	< 600 nM
CC(=O)Nc1nc2c(s1)-c1c(c(C3CC3)nn1-c1ccc(C(=O)NC3CCN(CC4CCCCC4)CC3)c(F)c1)CC2	< 600 nM
CC(=O)Nc1nc2c(s1)-c1c(c(C3CC3)nn1-c1ccc(C(=O)N[C@@H]3CCN(C4CCCCC4)C3)c(Cl)c1)CC2	< 600 nM
CC(=O)Nc1nc2c(s1)-c1c(c(C3CC3)nn1[C@H]1CC[C@H](C(=O)NC3CCN(C4CCCC4)CC3)CC1)CC2	< 600 nM
CC(=O)Nc1nc2c(s1)-c1c(c(C3CC3)nn1-c1ccccc1Cl)CC2	< 600 nM
CC(=O)Nc1nc2c(s1)-c1c(c(C3CC3)nn1-c1ccc(C(=O)N[C@H]3CC[C@@H](N4CCCC4)CC3)c(Cl)c1)CC2	< 600 nM
CC(=O)Nc1nc2c(s1)-c1c(c(C3CC3)nn1-c1ccc(C(=O)N[C@H]3CC[C@@H](N4CCCCC4)CC3)c(Cl)c1)CC2	< 600 nM
CCCN1CCC(NC(=O)c2ccc(-n3nc(C4(C)CC4)c4c3-c3sc(NC(C)=O)nc3CC4)c(Cl)c2)CC1	< 600 nM
CC(=O)Nc1nc2c(s1)-c1c(c(C3CC3)nn1-c1ccc(C(=O)N3CC[C@@H](CN4CCCC4)C3)c(Cl)c1)CC2	< 600 nM
CC(=O)Nc1nc2c(s1)-c1c(c(C3CCCC3)nn1-c1ccccc1Cl)CC2	< 600 nM
CC(=O)Nc1nc2c(s1)-c1c(c(C3CC3)nn1-c1ccc(C(=O)N[C@H]3CC[C@@H](N(C)CC4CC4)CC3)c(F)c1)CC2	< 600 nM
CCN(CC)CCN1CCN(C(=O)c2ccc(-n3nc(C4CC4)c4c3-c3sc(NC(C)=O)nc3CC4)cc2Cl)CC1	< 600 nM
CC(=O)Nc1nc2c(s1)-c1c(c(C3CC3)nn1-c1ccc(C(=O)N(C)[C@H]3CC[C@@H](N(C)CC4CCCC4)CC3)c(C)c1)CC2	< 600 nM

SMILES	IC50
CC(=O)Nc1nc2c(s1)-c1c(c(C3(C)CC3)nn1-c1ccc(C(=O)N[C@H]3CC[C@@H](N4CCCCC4)CC3)cc1Cl)CC2	< 600 nM
CC(=O)Nc1nc2c(s1)-c1c(c(C3CC3)nn1C1CCN(C(=O)N3CCN(C(C)C)CC3)CC1)CC2	< 600 nM
CC(=O)Nc1nc2c(s1)-c1c(c(C3CC3)nn1-c1ccc(C(=O)N[C@H]3CC[C@@H](N(C)CC4CCCC4)CC3)c(C)c1)CC2	< 600 nM
CC(=O)Nc1nc2c(s1)-c1c(c(C3CC3)nn1-c1ccc(C(=O)N(C)[C@H]3CC[C@@H](N(C)CC4CC4)CC3)c(Cl)c1)CC2	< 600 nM
CCN(C(=O)c1ccc(-n2nc(C3CC3)c3c2-c2sc(NC(C)=O)nc2CC3)cc1C)[C@H]1CC[C@@H](N2CCCC2)CC1	< 600 nM
CC(=O)Nc1nc2c(s1)-c1c(c(C3CC3)nn1-c1ccc(N)c(Cl)c1)CC2	< 600 nM
CC(=O)Nc1nc2c(s1)-c1c(c(C3CC3)nn1-c1ccc(C(=O)N[C@H]3CC[C@@H](N4CCOCC4)CC3)cc1C)CC2	< 600 nM
CCCN1CCC(NC(=O)c2ccc(-n3nc(C4CC4)c4c3-c3sc(NC(C)=O)nc3CC4)cc2F)CC1	< 600 nM
CC(=O)Nc1nc2c(s1)-c1c(c(C3CC3)nn1-c1ccc(C(=O)NC3CCN(C4CCCCC4)CC3)c(C)c1)CC2	< 600 nM
CC(=O)Nc1nc2c(s1)-c1c(c(C3CC3)nn1-c1ccc(C(=O)N(C)C3CCC(N4CCCCC4)CC3)c(F)c1)CC2 (stereo not drawn)	< 600 nM
CC(=O)Nc1nc2c(s1)-c1c(c(C3CC3)nn1C1CCC(C(=O)N(C)[C@H]3CC[C@@H](N4CCCC4)CC3)CC1)CC2 (stereo partly drawn)	< 600 nM
CC(=O)Nc1nc2c(s1)-c1c(c(C3(C)CC3)nn1-c1ccc(C(=O)NC3CCN(C4CCCC4)CC3)cc1Cl)CC2	< 600 nM
CC(=O)Nc1nc2c(s1)-c1c(c(C3CC3)nn1-c1ccc(C(=O)N[C@H]3CC[C@@H](N4CCCCC4)CC3)c(F)c1)CC2	< 600 nM
CC(=O)Nc1nc2c(s1)-c1c(c(C3CC3)nn1-c1ccc(C(=O)NC3CCN(CC4CCCC4)CC3)c(C)c1)CC2	< 600 nM
CC(=O)Nc1nc2c(s1)-c1c(c(C3CC3)nn1-c1ccc(C(=O)NC[C@H]3CCN(C4CCCC4)C3)c(Cl)c1)CC2	< 600 nM
CC(=O)Nc1nc2c(s1)-c1c(c(C3CC3)nn1-c1ccc(C(=O)NC3CCN(CC4CCCCC4)CC3)c(C)c1)CC2	< 600 nM
CCCN1CC[C@@H](NC(=O)c2ccc(-n3nc(C4CC4)c4c3-c3sc(NC(C)=O)nc3CC4)c(F)c2)C1	< 600 nM
CC(=O)Nc1nc2c(s1)-c1c(c(C3CC3)nn1-c1ccc(C(=O)N(C)Cc3ccncc3)cc1Cl)CC2	< 600 nM
CC(=O)Nc1nc2c(s1)-c1c(c(C3CC3)nn1C1CCN(C(=O)N3CCC(N(C)C)CC3)CC1)CC2	< 600 nM

More lines, now with the values ahead:

IC50	SMILES
< 600 nM	CC(=O)Nc1nc2c(s1)-c1c(c(C3CC3)nn1-c1ccc(C(=O)N[C@H]3CC[C@@H](N(C)CC4CCCC4)CC3)cc1C)CC2
< 600 nM	CC(=O)Nc1nc2c(s1)-c1c(c(C3CC3)nn1-c1ccc(C(=O)N(C)[C@H]3CC[C@@H](N4CCCCC4)CC3)cc1C)CC2
< 600 nM	CC(=O)Nc1nc2c(s1)-c1c(c(C3CC3)nn1-c1ccc(C(=O)N(C)C[C@H]3CCN(C4CCCC4)C3)c(Cl)c1)CC2
< 600 nM	CCN(C(=O)c1ccc(-n2nc(C3CC3)c3c2-c2sc(NC(C)=O)nc2CC3)c(C)c1)[C@H]1CC[C@@H](N2CCCC2)CC1
< 600 nM	CC(=O)Nc1nc2c(s1)-c1c(c(C3CC3)nn1-c1ccc(C(=O)N(C)CC3CCN(CC4CCCC4)CC3)c(Cl)c1)CC2
< 600 nM	CC(=O)Nc1nc2c(s1)-c1c(c(C3CC3)nn1-c1ccc(C(=O)N3CCC(N(C)C4CCCC4)CC3)cc1Cl)CC2
< 600 nM	CC(=O)Nc1nc2c(s1)-c1c(c(C3CC3)nn1-c1ccc(C(=O)N(C)[C@H]3CCN(C4CCCCC4)C3)c(F)c1)CC2
< 600 nM	CC(=O)Nc1nc2c(s1)-c1c(c(C3CC3)nn1-c1ccc(C(=O)N[C@H]3CC[C@@H](N(C)C)CC3)cc1Cl)CC2
< 600 nM	CC(=O)Nc1nc2c(s1)-c1c(c(C3CC3)nn1-c1ccc(C(=O)N(C)[C@H]3CCN(C4CCCCC4)C3)cc1F)CC2
< 600 nM	CC(=O)Nc1nc2c(s1)-c1c(c(C3CCCC3)nn1-c1ccc(C(=O)N[C@H]3CC[C@@H](N4CCCCC4)CC3)cc1Cl)CC2
< 600 nM	CC(=O)Nc1nc2c(s1)-c1c(c(C3CC3)nn1-c1ccc(C(=O)N(C)[C@H]3CCN(C4CCCCC4)C3)c(C)c1)CC2
< 600 nM	CC(=O)Nc1nc2c(s1)-c1c(c(C3CC3)nn1-c1ccc(CC(=O)NC3CCCCC3)cc1Cl)CC2
< 600 nM	CC(=O)Nc1nc2c(s1)-c1c(c(C3CC3)nn1-c1ccc(C(=O)N(C)C3CCN(C)CC3)cc1Cl)CC2
< 600 nM	CC(=O)Nc1nc2c(s1)-c1c(c(C3CC3)nn1-c1ccc(C(=O)N(C)C3CCN(C4CCCC4)C3)c(Cl)c1)CC2 (stereo not drawn)
< 600 nM	CC(=O)Nc1nc2c(s1)-c1c(c(C3CC3)nn1-c1ccc(C(=O)N(C)CC3CCN(C4CCCC4)CC3)c(Cl)c1)CC2
< 600 nM	CC(=O)Nc1nc2c(s1)-c1c(c(C3CC3)nn1-c1ccc(C(=O)N(C)[C@H]3CC[C@@H](N(C)CC4CCCC4)CC3)c(Cl)c1)CC2
< 600 nM	CC(=O)Nc1nc2c(s1)-c1c(c(C3CC3)nn1-c1ccc(C(=O)NC3CCN(CC4CCCC4)CC3)cc1F)CC2
< 600 nM	CC(=O)Nc1nc2c(s1)-c1c(c(C3CC3)nn1-c1ccc(C(=O)N(C)C3CCN(C4CCCC4)CC3)c(C)c1)CC2

IC50	SMILES
< 600 nM	CC(=O)Nc1nc2c(s1)-c1c(c(C3CCCC3)nn1-c1ccc(C(=O)N(C)[C@H]3CC[C@@H](N4CCCC4)CC3)cc1Cl)CC2
< 600 nM	CC(=O)Nc1nc2c(s1)-c1c(c(C3CC3)nn1-c1ccc(C(=O)NC3CCN(C4CCCCC4)CC3)c(Cl)c1)CC2
< 600 nM	CC(=O)Nc1nc2c(s1)-c1c(c(C3CC3)nn1-c1ccc(C(=O)N(C)[C@@H]3CCN(CC4CCCC4)C3)cc1F)CC2
< 600 nM	CC(=O)Nc1nc2c(s1)-c1c(c(C3CC3)nn1-c1ccc(C(=O)N[C@@H]3CCN(C4CCCC4)C3)cc1F)CC2
< 600 nM	CC(=O)Nc1nc2c(s1)-c1c(c(C3CC3)nn1-c1ccc(C(=O)N(C)[C@H]3CC[C@@H](N4CCCC4)CC3)c(C)c1)CC2
< 600 nM	CC(=O)Nc1nc2c(s1)-c1c(c(C3CC3)nn1-c1ccc(C(=O)NC3CCN(C4CCCC4)CC3)c(Cl)c1)CC2
< 600 nM	CC(=O)Nc1nc2c(s1)-c1c(c(C3CC3)nn1-c1ccc(C(=O)N(C)[C@@H]3CCN(CC4CCCC4)C3)cc1C)CC2
< 600 nM	CC(=O)Nc1nc2c(s1)-c1c(c(C3CC3)nn1-c1ccc(C(=O)N[C@H]3CC[C@@H](N(C)CC4CCCC4)CC3)cc1F)CC2
< 600 nM	CC(=O)Nc1nc2c(s1)-c1c(c(C3CC3)nn1-c1ccc(C(=O)N(C)C[C@@H]3CCN(C4CCCC4)C3)c(Cl)c1)CC2
< 600 nM	CC(=O)Nc1nc2c(s1)-c1c(c(C3CC3)nn1-c1ccc(C(=O)N[C@@H]3CCN(CC4CCCC4)C3)cc1Cl)CC2
< 600 nM	CNC(=O)c1ccc(-n2nc(C3CCC3)c3c2-c2sc(NC(C)=O)nc2CC3)c(Cl)c1
< 600 nM	CC(=O)Nc1nc2c(s1)-c1c(c(C3CC3)nn1-c1ccc(C(=O)N[C@H]3CC[C@@H](N(C)CC4CCCC4)CC3)cc1Cl)CC2
< 600 nM	CC(=O)Nc1nc2c(s1)-c1c(c(C3CCC3)nn1-c1ccc(C(=O)NC3CCN(C(C)C)CC3)cc1Cl)CC2
< 600 nM	CC(=O)Nc1nc2c(s1)-c1c(c(C3CC3)nn1-c1ccc(C(=O)N[C@H]3CC[C@@H](N4CCOCC4)CC3)cc1Cl)CC2
< 600 nM	CC(=O)Nc1nc2c(s1)-c1c(c(C3CC3)nn1-c1ccc(C(=O)N(C)[C@@H]3CCN(CC4CCCC4)C3)c(C)c1)CC2
< 600 nM	CC(=O)Nc1nc2c(s1)-c1c(c(C3(C)CC3)nn1-c1ccc(C(=O)N(C)[C@H]3CC[C@@H](N4CCCC4)CC3)cc1Cl)CC2
< 600 nM	CC(=O)Nc1nc2c(s1)-c1c(c(C3CCC3)nn1-c1ccc(C(=O)N(C)[C@H]3CC[C@@H](N4CCCC4)CC3)cc1Cl)CC2
